This is an account of results in patent US20250248393A1, “METHOD OF RELEASING A SEMIOCHEMICAL IN THE ENVIRONEMENT BY PASSIVE DIFFUSION, SYSTEM AND MEANS, ESPECIALLY STICKS, TO THIS END, AND USES THEREOF” (SIGNS, priority 2024, published 2025).

The conditions of data set [1]: cited from earlier work.
Data set [2] is described as follows: F3 sticks device, direct diffusion, 40 mL and four sticks (SPME GC/MS). It is filed as physicochemical. The conditions noted are these: four sticks. On the procedure:
Three devices containing 40 mL of F3 feline facial pheromone product and four rattan sticks were prepared and left on diffusion. Every Monday, Wednesday and Friday, the diffusion of the pheromone in air was checked by analysis by gas chromatography coupled with mass spectrometer (GC/MS) and SPME (solid phase microextraction) until there is no liquid left (about 22 days).
To that purpose, the studied device was taken and placed into a closed space (in our case an aquarium turned over) containing the SPME fiber as shown on FIG. 24.
The SPME fiber was left for two hours to give the time for the molecules to adsorb on the fiber, then the fiber was injected into the GC/MS instrument for analysis.
Analysis were carried out using gas chromatography with mass spectrometer. The instrument was a GCMS QP2010SE® from Shimadzu with an AOC6000® Autosampler. The separation was performed on a ZB-5 MS® column (30 m×0.25 mm×0.25 μm, stationary phase: 95% Dimethylpolysiloxane, 5% Phenyl-Arylene) from Phenomenex. The GC oven temperature was initially held at 100° C. for 1 minute then increased at a pace of 10° C./min to 120° C. and left at this temperature for 3 minutes. Finally, the oven temperature was increased at a pace of 10° C./min to 240° C. and left at this temperature for 10 minutes. The carrier gas was helium at 1 mL/min. Analysis were performed in split mode using a split/splitless injector (Temperature: 250° C., split: 1:20). The SPME fiber was directly injected into the injector and left for 30 minutes. Separated molecules were detected using a mass spectrometer which was operated in electron impact ionization (EI) in both full scan (FS) and single ion monitoring (SIM) modes, so called FASST (Fast Automated SCAN/SIM type) mode. The interface temperature was set at 300° C. and electron impact source temperature at 250° C. The analyser was a quadrupole.
For the measurement of the relative quantity of active ingredient spreading in air, the area of the chromatographic peak corresponding to the compound was measured using Shimadzu GCMS-Solution software.

Data set [3] can be described thus: F3 migration along the stick (top 1 cm, GC/MS). The conditions noted are these: F3, five sticks. It is filed as physicochemical. On the procedure: Three devices containing 40 mL of F3 feline facial pheromone product and five […] sticks were prepared and left on diffusion. A t=1 day, T=3 days, T=10 days, T=15 days and T=22 days after preparation of the devices, one stick was taken on each device and 1 cm of the top of each stick was cut, then extracted with acetone 1 h in an ultrasonic bath and analysed by gas chromatography coupled with mass spectrometry (GC/MS). The same analytical parameters were used for the study C with a liquid injection (injected quantity: […]) Blank analysis and matrix blank analysis were also performed.

Data set [4] is described as follows: Ratios of molecules diffused through the sticks over time. It is filed as physicochemical. On the procedure:
Furthermore, as small molecules diffuse more, it happens that they lose intensity over the course of the study, so the ratios are different 24 hours after immersing the sticks in the liquid and 21 days later. Here are the ratios for each pheromone studied at the start of the study and at the end.

A short description of data set [5]: F3 block stability study in sodium stearate aqueous gel (GC-MS). It is filed as physicochemical. The conditions noted are these: after 3 months. How it is done: Aqueous sodium stearate gel is a method used by SIGNS for several of the pheromones it markets (pork, poultry, rabbit). The sodium stearate matrix is cast at high temperature (60° C.) and contains 2% pheromone. In this study, matrix samples are taken by coring, and the active ingredients are extracted by apolar solvent, using the SIGNS-validated quality control method. Extracts are analyzed by GC-MS. […] Given this observation, formula F3 cannot be used in blocks for passive diffusion, so a change of galenic formulation is necessary.

The nature of data set [6]: Pheromone migrated to the stick tips (GC/FID). The note with it: on stick tips, despecified pheromone. It is filed as physicochemical. On the procedure:
In the course of this study, we also measured the amount of pheromone migrating on the sticks, to check that the pheromone had migrated to the top of the sticks, helping it to diffuse into the air. To do this, the test is the same as for the diffuser blocks: 2.5 g of stick tips are cut off and placed in a 50 mL flask, which is then placed in an ultrasonic bath for one hour. The resulting solution is filtered (to avoid injecting particles into the instrument) and placed in a chromatographic vial for analysis.

Data set [7] can be described thus: Indirect assay of diffuser blocks (GC/FID, pheromone remaining in the block). It is filed as physicochemical. The note with it: despecified pheromone. On the procedure: Analyses were carried out using the gas chromatography (GC) technique with a flame ionization detector (FID), commonly known as GC/FID. The instrument used was the Shimadzu GC2025.® • Injection: Quantity injected: 1 μL, split 50:1, temperature: 230° C. • Separation: DB-WAX column (Agilent), length: 20 m, diameter: 180 μm, film thickness: […] • Carrier gas: Helium (He) • Analysis time: 11.50 min (not including time to return to equilibrium between each analysis) injection). • Detection: FID, temperature: 250° C., flow rates: H2: 40 mL/min, Air: 400 mL/min, Nitrogen (make-up): 30 mL/min. To obtain a representative sample, “cores” were drilled at various positions in the block and then collected. 2.5 g of gel were weighed into a 50 mL volumetric flask and the volume made up to the beginning of the neck of the flask with acetone. The flask was then placed in an ultrasonic bath for one hour until the block was dissolved (a white precipitate was obtained), then acetone was added to the mark. An aliquot of this solution was placed in a syringe fitted with a syringe filter and filtered to obtain a translucent solution. The resulting solution was transferred to a 1.5 mL GC vial for analysis. The assays were carried out using a calibration range.

Data set [8] can be described thus: Direct diffusion of diffuser blocks (SPME GC/MS). It is filed as physicochemical. The note with it: despecified pheromone 2%, 4 weeks. On the procedure: Analyses were carried out using gas chromatography (GC) coupled to a mass spectrometer (MS) detector, a technique commonly referred to as GCMS. The molecules of interest were extracted using the Solid Phase Micro-Extraction (SPME) technique. The instrument used was the following: QP2010SE® from Shimadzu (See FIG. 4).
AOC 6000® automatic feeder • Extraction/SPME fiber: polyacrylate/Fused silica (85 μm), 23 Ga. • Adsorption time: 2 hours (exposure time of fiber above block) (See FIG. 4) • Desorption time: 30 minutes (fiber exposure time in injector) • Fiber-block distance: 2 cm • Injection: split/splitless injector • Temperature: 250° C., split 50 mode. • Separation: ZB-FFAP® column (Phénomenex), length: 30 m, diameter: 250 μm, film thickness: […]
• Carrier gas: Helium (He) • Analysis time: 18 min (not including time to return to equilibrium between each analysis injection • Detection: mass spectrometer with electron impact source/analyzer: quadrupole. • Source temperature: 200° C. • Interface temperature: 250° C. • Scan m/z 50 to m/z 500 • SIM with ions 55, 66 and 74.
Analyses were carried out in triplicate to verify reproducibility of results.
With the SPME method, results are evaluated by measuring the chromatographic peak area. The data have been plotted on diffusion curve (see FIGS. 5 and 6).

Data set [9] is described as follows: Indirect assay of rod diffuser solution (GC/FID). It is filed as physicochemical. The note with it: stick diffuser solution, despecified pheromone. How it is done:
Solution integrity was checked at each analysis time. Before each indirect assay, the vial was weighed to visualize mass loss over time. Each vial contained six sticks. • Specifications: the solution must lose mass over time. • Result: Compliant—See FIG. 9 This is the same analytical method as for the diffuser block study, only the sample preparation differs. 1.25 g of solution were weighed into a 25 mL volumetric flask and the volume made up to the mark with acetone. The resulting solution is transferred to a 1.5 mL GC vial for analysis. This is exactly the same calibration range as for the diffuser block study.

Data set [10] in a line: DAP PCDS direct diffusion (SPME-GC/MS). It is filed as physicochemical. The conditions noted are these: DAP/PCDS diffuser, 40 mL, 6 capillaries. How it is done:
Three diffusers, each containing 40 mL of solution and 6 capillaries, were prepared and diffused. The first points were measured at T=1d, T=2, and T=3d, then every Monday, Wednesday and Friday of each study week until the diffusers no longer contained any solution. To measure the pheromone released into the air at each study time, the diffuser is first weighed (with the sticks) to measure mass loss, then placed in an enclosed area (in this case, an upside-down aquarium) containing a SPME fiber, as shown in FIG. 24.
The fiber is left to diffuse above the diffuser for 2 hours (a time determined in a previous method development as the optimum time for molecules to adsorb to the phase), then analyzed using the gas chromatography/mass spectrometry (GC/MS) technique.
Three diffusers were studied for greater accuracy. The chromatograms obtained are reprocessed using GC/MS Solution software.
For each chromatographic peak, the area is recorded using GC/MS Solution software, then entered into an Excel spreadsheet. Diffusion curves giving the area of the chromatographic peak corresponding to each active ingredient as a function of time are then plotted.
Analyses were carried out by gas chromatography/mass spectrometry (GC/MS). The instrument was a Shimadzu GCMS QP2010SE® equipped with an AOC 6000® autosampler. Separation was carried out on a ZB-FFAP® column (30 m×0.25 mm×0.25 μm, stationary phase: nitroterephthalic acid-modified polyethylene glycol) supplied by Phenomenex. The furnace temperature was initially set at 80° C. for 1 minute, then increased at 10° C./min to 240° C. and maintained at this temperature for 2 minutes. The carrier gas was helium at a flow rate of 1 mL/min. Analysis time is 19 minutes.
The injector is a split/splitless injector used in split mode (temperature: 250° C., split: 50:1). The SPME fiber was injected directly into the injector and left to desorb for 15 minutes.
The separated molecules were detected using a mass spectrometer equipped with an electron impact source (temperature: 200° C.). The analyzer is a simple quadrupole. The interface temperature is 250° C. Data were acquired in FASST mode (Fast automated SCAN/SIM type), i.e. part of the analysis was performed by scanning all ions (SCAN) and part by selecting specific ions (SIM). Target molecules were thus analyzed using ion selection.

Setting [11] is: F3P, 24 h after immersion of the sticks.
Where [12] appears, read: F3P, 21 days after immersion of sticks (empty tank).
The mark [13] stands for this setting: DAP, 24 h after immersion of sticks.
[14] abbreviates: DAP, 21 days after immersion of sticks (empty tank).

As usually defined, the vapor pressure is the pressure of vapour in equilibrium with the condensed phase.

Each structure is given as a SMILES string. Where two headings read alike, the source gives them in different places.

Regarding `COC(C)(C)CCO` [3-methoxy-3-methyl-1-butanol], the vapor pressure in data set [1] (at 20° C.) is on record as 0.07 kPa; in [1] (at 25° C.) it was 0.12 kPa.
Take `COC(=O)CCCCCCCC(=O)OC` [dimethyl azelate, dimethyl nonanedioate]: the “direct diffusion over time” value in data set [2] is “constant diffusion”. Also, in [3], the “relative quantity on the top of the stick” value is “less present”. The “ratio of molecules diffused through the sticks” value (shortened to “ratio”) in data set [4] (F3, 24 h after immersion of sticks) is reported as 25 % (w/w); in [4] (F3, 21 days after immersion of sticks (empty tank)), 43 % (w/w); in [4] (setting [11]), 18 % (w/w); in data set [4] (setting [12]), 31.3 % (w/w). In [5], the “stability in the block” value is reported as “disappeared completely”.
On to `CCCCC/C=C\C/C=C\CCCCCCCC(=O)OC` [methyl linoleate, methyl (9Z,12Z)-octadeca-9,12-dienoate], for which the “% of the active ingredient in the pheromone” value in [6] (day 7) is recorded as 29.7%; in data set [6] (day 14) it was 30.1%; in [6] (day 21) it was 28.6%; in [7] (day 0), 30.4%; in data set [7] (day 7) it was 30.2%; in data set [7] (day 14), 30.4%. Moreover, the “% of the active ingredient in the pheromone” value came to 30.5% in data set [7] (day 21); 30.5% in data set [7] (day 28); 30.0% in [9] (day 0); 30.0% in [9] (day 7); 30.1% in data set [9] (day 14); 31.5% in data set [9] (day 21). Moreover, in data set [8], the “direct diffusion from the diffuser block” value is given as “lowest intensity”. Moreover, the “ratio” value in data set [4] (setting [13]) is on record as 3 % (w/w); in data set [4] (setting [14]), 4 % (w/w); in data set [4] (Despecified pheromone (Core), 5 days after immersion of the sticks), 2 % (w/w); in data set [4] (Despecified pheromone (Core), 21 days after immersion of sticks (empty tank)), 4 % (w/w); in [4] (setting [11]), 0.3 % (w/w); in data set [4] (setting [12]), 0.5 % (w/w). In addition, in data set [10], the “direct diffusion over time” value is reported as “slight increase over time”.
For the compound `CCCCCCCCCCCCCCC(=O)OC` [methyl pentadecanoate], the “ratio” value in data set [4] (setting [13]) was 7 % (w/w); in data set [4] (setting [14]) it was 9 % (w/w). Also, the “direct diffusion over time” value in [10] is “slight increase over time”.
On to `CCCCCCCCCCCCCCCCCC(=O)OC` [methyl stearate, methyl octadecanoate], for which the “ratio” value is reported as 0.5 % (w/w) in [4] (setting [13]), 1 % (w/w) in data set [4] (setting [14]), 0.1 % (w/w) in data set [4] (setting [11]) and 0.1 % (w/w) in data set [4] (setting [12]). Moreover, the “direct diffusion over time” value in data set [10] is reported as “diffuses the least”.
